# According to patent US20120232127A1, “REGULATION OF NEUROTRANSMITTER RELEASE THROUGH ANION CHANNELS” (KOREA INSTITUTE OF SCIENCE AND TECHNOLOGY, priority 2008, published 2012):
# “Also recorded” adds a separate entry of the source.
# Tests used:
# [1] = system: intracellular Ca2+ in cultured astrocytes; assay: Ca2+ imaging of TFLLR-induced [Ca2+]i transient in cultured astrocytes; assay type: cell-based, mouse
# Method: (§1) The External solution was comprised of (in mM) 150 NaCl, 10 HEPES, 3 KCl, 2 CaCl2, 2 MgCl2, 5.5 glucose, at pH 7.3 (˜320 mOsm). For voltage clamp recordings, the internal solution contained 25 μg/ml gramicidin D and (in mM) 75 Cs2SO4, 10 NaCl, 0.1 CaCl2, and 10 HEPES, at pH 7.1 (˜310 mOsm). For current clamp recordings, the internal solution contained 25 μg/ml gramicidin D and (in mM) 75 K2SO4, 10 KCl, 0.1 CaCl2, and 10 HEPES, at pH 7.1 (˜310 mOsm). Pipette resistances ranged from 5 to 8 MΩ. For perforated patch clamp, it took 20 to 30 min to achieve acceptable perforation, with final series resistances ranging from 15 to 40 MΩ.
# (§2) To test if activation of PAR1 by its specific agonist (e.g., TFLLR) causes any change in membrane conductance that might contribute to glutamate release from astrocytes, the whole cell currents and intracellular Ca^2+ responses in cultured astrocytes under gramicidin-D perforated patch configuration were simultaneously recorded (FIG. 1a). This technique minimized dialysis of intracellular ions.
# [2] = system: Ca2+-activated anion channels (CAACs); assay: Gramicidin-D perforated patch clamp of TFLLR-induced inward current in cultured astrocytes; assay type: cell-based, mouse
# Method: as §1, §2
# [3] = target: T1, Ca2+-activated anion channels (CAACs) (Mus musculus, UniProt O88870, R255K); assay: as above; assay type: cell-based; conditions: for block of the current by CAACs: astrocytes; for block of TFLLR-induced current: 100 μM blocker, cultured astrocytes
# T1 construct: endogenous in cells; host or cells: cultured mouse cortical astrocytes
# T1 sequence (O88870 1-551 R255K): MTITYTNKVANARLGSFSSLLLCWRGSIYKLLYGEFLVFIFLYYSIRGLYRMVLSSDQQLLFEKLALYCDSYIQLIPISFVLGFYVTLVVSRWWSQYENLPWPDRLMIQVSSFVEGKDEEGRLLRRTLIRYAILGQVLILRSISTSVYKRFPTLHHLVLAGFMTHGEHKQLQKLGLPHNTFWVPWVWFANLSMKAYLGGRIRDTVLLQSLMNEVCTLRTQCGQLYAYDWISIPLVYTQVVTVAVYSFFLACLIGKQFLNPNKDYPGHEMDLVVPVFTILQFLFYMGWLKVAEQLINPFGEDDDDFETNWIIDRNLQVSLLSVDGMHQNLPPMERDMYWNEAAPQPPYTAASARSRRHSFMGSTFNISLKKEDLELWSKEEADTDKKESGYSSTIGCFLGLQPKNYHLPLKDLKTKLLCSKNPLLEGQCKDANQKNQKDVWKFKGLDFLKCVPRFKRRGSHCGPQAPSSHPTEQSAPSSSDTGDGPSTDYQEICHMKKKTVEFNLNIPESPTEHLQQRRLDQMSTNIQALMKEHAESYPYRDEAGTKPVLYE
# Method: as §1, §2
# [4] = target: T2, astrocytic CAAC / mBest1 channel (glutamate release) (Mus musculus, UniProt O88870, R255K); assay: Sniffer patch: astrocyte to GluR1 (L497Y)-expressing HEK293T cell pairs, TFLLR-induced glutamate release; assay type: cell-based; conditions: sniffer patch, cultured astrocytes as glutamate source
# T2 construct: endogenous in cells; host or cells: cultured mouse cortical astrocytes
# T2 sequence (O88870 1-551 R255K): T1 sequence (O88870 1-551 R255K)
# Method: The sniffer patch technique, which is used for determining whether or not one is permeable to glutamate, was performed as described in Lee, C. J. et al. Astrocytic control of synaptic NMDA receptors. J Physiol 581, 1057-81 (2007), which is hereby incorporated by reference for all purposes as if fully set forth herein.
# 2. In experiments using astrocyte-HEK293T cell pairs, the sniffer patch techniques used naïve, scrambled- or mBest1-specific shRNA expressing (with GFP) astrocytes as a glutamate source; and GluR1 (L497Y) expressing HEK293T cells (with DsRED) as a detector. After obtaining gigaohm sealing, GluR1 (L497Y)-expressing cell was firstly ruptured, and then counterpart astrocytes were pressure-applied with 500 uM of TFLLR to evoke an increase in astrocytic intracellular Ca^2+ and resulting glutamate release onto the adjacent HEK293T cells.
# GluR1LY-expressing detector cells were patched with the pipette solution pH 7.3 containing 110 mM CsGluconate, 30 mM CsCl, 5 mM HEPES, 4 mM NaCl, 2 mM MgCl2, 5 mM EGTA, and 1 mM CaCl2. The percentage of GluR1 (L497Y)-mediated current to the full activation level was analyzed by dividing the current amplitude of GluR1 (L497Y) current obtained through sniffer patch measurement by that of fully activated GluR1 (L497Y) current in the same cells.
# The glutamate release through astrocytic CAACs was examined by using “sniffer-patch” technique and recording real-time glutamate release from cultured astrocytes (FIG. 10a). Using this technique, the present inventors observed that TFLLR-induced astrocytic glutamate release into an adjacent HEK293T cells expressing the non-desensitizing AMPA receptor subunit GluR1 (L497Y) mutant evoked an inward current sensitive to AMPA receptor antagonists, which is interpreted to reflect release of glutamate. The effects of TFLLR on current responses in transfected HEK293T cells was blocked by the treatment of niflumic acid (% block by niflumic acid=66.6±5.7%, FIGS. 10d to 10f), which is consistent with the idea that astrocytic CAAC is permeable to glutamate.
# NMDA receptor (NMDAR) = assay: Voltage clamp of NMDAR-mediated mEPSC decay and NMDAR-mediated current
# [5] = system: evoked EPSPs in hippocampal slices; assay: Current clamp of evoked EPSPs, Schaffer collateral to CA1 pyramidal neuron synapse in hippocampal slices; conditions: 30 μM niflumic acid
# Method: To assess whether CAAC-dependent glutamate release in astrocytes occurs and enhances synaptic potentials in vivo, a series of current clamp experiments were carried out to directly measure the effects of CAAC-dependent glutamate release on the evoked EPSPs (eEPSPs) of the Schaffer collateral to CA1 pyramidal neuron synapse in hippocampal slices. Under the similar recording conditions as previously described in ‘Lee, C. J. et al. Astrocytic control of synaptic NMDA receptors.
# astrocytic CAACs = target: T3, astrocytic CAACs (Mus musculus, UniProt O88870, R255K); assay: Whole-cell patch clamp, astrocytic CAAC current directly activated by 4.5 μM internal Ca2+; assay type: cell-based; conditions: internal solution with 4.5 μM Ca2+
# T3 construct: endogenous in cells; host or cells: cultured mouse cortical astrocytes
# T3 sequence (O88870 1-551 R255K): T1 sequence (O88870 1-551 R255K)
# Method: Patch pipettes which have 3-6MΩ of resistance are filled with the standard intracellular solution. Current voltage curves were established by applying 100- or 200-ms-duration voltage ramps from −100 to +100 mV. […]. Data were acquired by an Axopatch 200A amplifier controlled by Clampex 9.0 via a Digidata 1322A data acquisition system (Molecular Devices). Experiments were conducted at room temperature (20˜24° C.). The standard pipette solution was comprised of (in mM) 146 CsCl, 2 MgCl2, 5 (Ca^2+)-EGTA, 8 HEPES, and 10 sucrose, at pH 7.3, adjusted with CsOH. The concentration of free [Ca^2+]i in the solution was determined (Kuruma, A. & Hartzell, H. C. Bimodal control of a Ca(^2+)-activated Cl(−) channel by difference Ca(^2+) signals. J Gen Physiol 115, 59-80 (2000), which is hereby incorporated by reference for all purposes as if fully set forth herein). The standard extracellular solution was comprised of (in mM) 140 NaCl, 5 KCl, 2 CaCl2, 1 MgCl2, 15 glucose, and 10 HEPES, with pH 7.3 as adjusted using NaOH.
# Because CAACs can permeate large anions and could be directly activated by applying internal solutions with known Ca^2+ concentrations, it was tested whether astrocytic CAACs can permeate glutamate by directly applying internal solutions containing 4.5 μM of Ca^2+ at which level CAACs are maximally activated (FIG. 10).
# [6] = system: CAACs expressed in Xenopus laevis oocytes; conditions: read-out: reported IC50 value for CAACs expressed in Xenopus laevis oocytes; cited from earlier work
# [7] = system: glutamate release from cultured astrocytes; assay: TFLLR-evoked efflux of radiotracer from [3H]-glutamate-loaded cultures; assay type: cell-based
# [8] = target: T4, Ca2+-activated anion channels (CAACs) (Mus musculus, UniProt O88870); assay: Gramicidin-D perforated patch clamp of TFLLR-induced inward current in cultured astrocytes; assay type: cell-based; conditions: cultured astrocytes, voltage-independent block
# T4 construct: endogenous in cells; host or cells: cultured mouse cortical astrocytes
# T4 sequence (O88870 1-551 R255K): T1 sequence (O88870 1-551 R255K)
# Method: as §1, §2
# [9] = thapsigargin 100 nM, preincubation 5 min
# [10] = thapsigargin 100 nM, preincubation 5 min, listed as Thapsigargin
# [11] = U73122 2 μM, preincubation 10 min
# [12] = BAPTA-AM, 50 μM preincubation for 30 min
compound,measurement,setting,value
C/C=C(/C)C(=O)O[C@H]1C(C)=C2[C@H]([C@@H]1OC(=O)CCCCCCC)[C@@](C)(OC(C)=O)C[C@H](OC(=O)CCC)[C@@]1(O)[C@H]2OC(=O)[C@@]1(C)O [thapsigargin],effect on TFLLR-induced [Ca2+]i increase,[1]; [9],reduced
same,effect on TFLLR-induced [Ca2+]i increase,[1]; [10],inhibition
same,effect on TFLLR-induced inward current,[2]; [9],reduced
same,effect on TFLLR-induced inward current,[2]; [10],inhibition
COc1ccc2c(c1)CC[C@@H]1[C@@H]2CC[C@]2(C)[C@@H](NCCCCCCN3C(=O)C=CC3=O)CC[C@@H]12 [U73122],effect on TFLLR-induced [Ca2+]i increase,[1]; [11],reduced; also recorded: inhibition
same,effect on TFLLR-induced inward current,[2]; [11],reduced; also recorded: inhibition
CC1(C)[C@@H](OC(=O)CCC(=O)O)CC[C@]2(C)[C@H]3C(=O)C=C4[C@@H]5C[C@@](C)(C(=O)O)CC[C@]5(C)CC[C@@]4(C)[C@]3(C)CC[C@@H]12 [carbenoxolone],block of the current by CAACs,[3]; 100 μM,did not block
chlorotoxin,block of the current by CAACs,[3]; 1 μM,did not block
O=C(O)c1cccnc1Nc1cccc(C(F)(F)F)c1 [niflumic acid],effect on TFLLR-induced increases in intracellular Ca2+,"[1]; 100 μM niflumic acid, n=5",attenuated but did not completely block
same,% block of TFLLR effect on current responses in GluR1 (L497Y)-transfected HEK293T cells,[4],66.6±5.7%
same,effect on NMDAR-mediated current amplitude,NMDA receptor (NMDAR),minimally affected
same,TFLLR-induced prolongation of slow NMDAR-mediated component of mEPSC decay,NMDA receptor (NMDAR); voltage clamp,sensitive
same,effect on TFLLR enhancement of eEPSP,[5],blocked; also recorded: not statistically significant
same,block of directly activated non-desensitizing CAAC current,astrocytic CAACs,readily blocked
same,IC50,[6],10.1 µM
same,inhibition of TFLLR-evoked efflux of radiotracer from [3H]-glutamate-loaded cultures,[7],69%
same,IC50,[8],9.8 µM
same,block of TFLLR-induced current,[3],blocked; also recorded: inhibited
same,block of TFLLR-induced current,[3]; listed as Niflumic acid,blocked
"O=C(O)c1cc([N+](=O)[O-])ccc1NCCCc1ccccc1 [NPPB, 5-nitro-2(3-phenylpropylamino)-benzoic acid]",block of TFLLR-induced current,[3],blocked
O=C(O)c1ccccc1Nc1cccc(C(F)(F)F)c1 [flufenamic acid],inhibition of TFLLR-evoked efflux of radiotracer from [3H]-glutamate-loaded cultures,[7],57%
same,block of TFLLR-induced current,[3],blocked
CC(=O)OCOC(=O)CN(CC(=O)OCOC(C)=O)c1ccccc1OCCOc1ccccc1N(CC(=O)OCOC(C)=O)CC(=O)OCOC(C)=O [BAPTA-AM],effect on TFLLR-induced [Ca2+]i transient,[1]; [12],eliminated; also recorded: inhibition
same,effect on TFLLR-induced current,[2]; [12],eliminated; also recorded: inhibition
